Values after ≈ are worked out from the molar mass of the structure shown. Read-outs that look alike come from different tables or passages of the source.
Key:
[1] = tested on: MRSA; experiment: antibacterial activity of antibiotics alone and in the presence of apigenin (4 μg/ml), MRSA; type: cell-based, methicillin-resistant Staphylococcus aureus; conditions: for MIC / MIC50: MRSA
Description: (§1) The screening of the present invention may be carried out according to the agar plate dilution method designated by the Japan Society of Chemotherapy (Chemotherapy 29(1), 76-79 (1981)). Mueller-Hinton agar base semi-synthetic medium may be used for a plate culture medium for a sensitivity test together with an inoculating bacteria solution which may be prepared by culturing bacteria to be tested at 37° C. for 20 hours diluted with 8.5% by isotonic sodium chloride solution to 10^6 CFU/ml. Diluted β-lactam solutions are prepared by two times serial dilution. 1 ml of the diluted β-lactam solution and 1 ml of a predetermined concentration of a sample to be tested are added to 8 ml of the plate culture medium for a sensitivity test. To the resultant plate culture medium for sensitivity test, the bacteria are inoculated using a microplanter (SAKUMASEISAKUSYO Co.), cultured for 20 hours at 37° C. followed by assessing for a minimum inhibition concentration (MIC).
(D) Then use of 4 μg/ml of apigenin and other antibiotics at the same time was studied. The antibiotics are penicillin , ampicillin, cephalothin, cefoxitin, cefuroxime, cefotaxime, vancomycin, streptomycin, chloramphenicol, kanamycin, erythromycin, nalixic acid and tetracycline.

[2] = tested on: MRSA No. 5; experiment: effect of flavone on antibacterial activity of antibiotics against MRSA No. 5 in bouillon (broth microdilution); type: cell-based, methicillin-resistant Staphylococcus aureus; conditions: for MIC: Staphylococcus aureus, MRSA, 20 h; for inhibitory effect on resistance of MRSA No.5 (in words): in the presence of flavone 0.5 mM
Description: Alternatively, the screening of the present invention may be carried out according to the broth microdilution method designated by the Japan Society of Chemotherapy (Chemotherapy 38(1), 102-105 (1990)). Muellar-Hinton broth is used as a culture medium for the sensitivity test, and 50 mg/ml of calcium(Ca) ion, 25 mg/ml of magnesium(Mg) ion, and 2% sodium chloride (NaCl) are added thereto. An inoculating bacteria solution may be prepared by culturing bacteria to be tested in Mueller-Hinton broth at 37° C. for 20 hours and diluting with Mueller-Hinton broth to 10^5 CFU/ml final concentration of inoculating bacteria. Diluted β-lactam solution is prepared by two times serial dilution series. 10 μl of the diluted β-lactam solution and 10 μl of a predetermined concentration of a sample of bacteria to be tested are added to mix with 80 μl of the culture medium for the sensitivity test. To the resultant plate culture medium for sensitivity test, the inoculating bacteria are added and culturing is carried out for 20 hours at 37° C. and then assessment for a minimum inhibition concentration (MIC) is carried out. A minimum inhibition concentration means the minimum concentration of β-lactam at which growth of bacteria is not recognized by the naked eye.
(G) Antibacterial activity of 6 β-lactams, that is, cephalothin, cefuroxime, cefotaxime, cefoxitin, streptomycin and vancomycin, against MRSA in the presence of 0.5 mM flavone was studied in bouillon.
Muellar-Hinton broth was used as a culture medium for the sensitivity test, and 50 mg/ml of calcium (Ca) ion, 25 mg/ml of maqnesium (Mg) ion, 2% sodium chloride (NaCl) were added thereto. An inoculating bacteria solution was prepared by culturing bacteria to be tested with Mueller-Hinton broth at 37° C. for 20 hours and diluting with Mueller-Hinton broth to 10^5 CFU/ml final concentration of inoculating bacteria. Diluted β-lactam solutions were prepared in two times serial dilutions starting from 10 mM. Ten microliters of the diluted β-lactam solution and 10 μl of 5 mM of flavone were mixed with 80 μl of the culture medium for the sensitivity test in a microplate having U-shaped wells and samples of bacteria to be tested were added thereto. The mixture was cultured 20 hours at 37° C. and then assessed for minimum inhibition concentration (MIC). Minimum inhibition concentration means minimum concentration of a β-lactum at which growth of bacteria is inhibited to the extent that bacteria is not recognized by the naked eye.

[3] = tested on: MRSA; experiment: antibacterial activity (MIC) by agar plate dilution method, MRSA strains; type: cell-based, methicillin-resistant Staphylococcus aureus; conditions: Staphylococcus aureus, 20 h; for MIC: range over strains
Description: as §1
(§2) (A) Antibacterial activities of ether extract from Scutellaria barbata, SB-1 (isolated from Scutellaria barbata), apigenin (authentic sample) and luteolin (authentic sample) were shown in Table 1.
(§3) Flavones were dissolved in methanol and the others were dissolved in 0.1 N NaOH. A method for determination of antibacterial activity is, as described above, an agar plate dilution method designated by the Japan Society of Chemotherapy (Chemotherapy 29(1), 76-79 (1981)) to determine MIC value. MIC80 is a concentration at which a strain is prohibited to proliferate by 80% and MIC50 is a concentration at which a strain is prohibited to proliferate by 50%.

[4] = tested on: MSSA; experiment: antibacterial activity (MIC) by agar plate dilution method, MSSA strains; type: cell-based, Methicillin-sensitive Staphylooccus aureus; conditions: Staphylococcus aureus, 20 h; for MIC: range over strains
Description: as §1, §2, §3

[5] = Staphylococcus aureus, 20 h, Antibiotics alone, read-out: MIC50
[6] = Staphylococcus aureus, 20 h, antibiotic with Apigenin (4 μg/ml), read-out: MIC
[7] = Staphylococcus aureus, 20 h, antibiotic with Apigenin (4 μg/ml), read-out: MIC50
[8] = Concentration of flavone 0 mM, read-out: MIC
[9] = Concentration of flavone 0.5 mM, read-out: MIC
[10] = Staphylococcus aureus, 20 h, Antibiotics alone
[11] = Staphylococcus aureus, 20 h, antibiotic with Apigenin (4 μg/ml)
[12] = MRSA (20 strains), read-out: MIC50
[13] = MRSA, MRSA (20 strains), read-out: MIC
[14] = MSSA (7 strains), read-out: MIC50
[15] = MSSA, MSSA (7 strains), read-out: MIC
[16] = Concentration of flavone 0.5 mM

Compound	MIC50 [1, 10] [mg/L]	MIC50 [1, 11] [mg/L]	MIC50 [3, 12] [mg/L]	MIC [3, 13] [mg/L]	MIC50 [4, 14] [mg/L]	MIC [4, 15] [mg/L]	other results
CC1(C)S[C@@H]2[C@H](NC(=O)[C@H](N)c3ccccc3)C(=O)N2[C@H]1C(=O)O [Ampicillin, ampicillin]							MIC ([1]; Staphylococcus aureus, 20 h, Antibiotics alone, read-out: MIC): 2 to 125 mg/L; MIC50 [1, 5]: 31.3 mg/L; MIC [1, 6]: 2 to 62.5 mg/L; MIC50 [1, 7]: 31.3 mg/L
CO[C@@]1(NC(=O)Cc2cccs2)C(=O)N2C(C(=O)O)=C(COC(N)=O)CS[C@@H]21 [Cefoxitin, cefoxitin]							MIC50 [1, 5]: 250 mg/L; MIC [1, 6]: 2 to 125 mg/L; MIC50 [1, 7]: 31.3 mg/L; inhibition of β-lactam resistant MRSA / improvement of antibacterial effect with apigenin (in words) ([1]; apigenin 4 μg/ml or less than its MIC): inhibited β-lactam resistant MRSA; MIC [2, 8]: 1000 µM (≈ 427 µg/mL); MIC [2, 9]: < 0.98 µM; inhibitory effect on resistance of MRSA No.5 (in words) [2]: showed the inhibitory effect remarkably
O=C1C[C@@H](c2ccc(O)cc2)Oc2cc(O)ccc21 [Liquiritigenin, liquiritigenin]							MIC50 ([3]; MRSA): > 250 mg/L; MIC50 ([4]; MSSA): > 250 mg/L
CCn1cc(C(=O)O)c(=O)c2ccc(C)nc21 [Nalidixic acid]	> 250	> 250					
Oc1cc(O)c2c(c1)O[C@H](c1ccc(O)c(O)c1)[C@@H](O)C2 [(+)-Catechin, (+)-catechin]			> 250	> 250	> 250	> 250	
CC[C@H]1OC(=O)[C@H](C)[C@@H](O[C@H]2C[C@@](C)(OC)[C@@H](O)[C@H](C)O2)[C@H](C)[C@@H](O[C@@H]2O[C@H](C)C[C@H](N(C)C)[C@H]2O)[C@](C)(O)C[C@@H](C)C(=O)[C@H](C)[C@@H](O)[C@]1(C)O [Erythromycin, erythromycin]	> 250	> 250					
CN[C@H](CC(C)C)C(=O)N[C@H]1C(=O)N[C@@H](CC(N)=O)C(=O)N[C@H]2C(=O)N[C@H]3C(=O)N[C@H](C(=O)N[C@H](C(=O)O)c4cc(O)cc(O)c4-c4cc3ccc4O)[C@H](O)c3ccc(c(Cl)c3)Oc3cc2cc(c3O[C@@H]2O[C@H](CO)[C@@H](O)[C@H](O)[C@H]2O[C@H]2C[C@](C)(N)[C@H](O)[C@H](C)O2)Oc2ccc(cc2Cl)[C@H]1O [Vancomycin, vancomycin]	0.98	0.49					MIC [1, 10]: 0.98 to 2 mg/L; MIC [1, 11]: 0.49 to 0.98 mg/L; MIC [2, 16]: < 0.98 µM; inhibitory effect on resistance of MRSA No.5 (in words) [2]: appeared not to be showed
CO/N=C(\C(=O)N[C@@H]1C(=O)N2C(C(=O)O)=C(COC(N)=O)CS[C@H]12)c1ccco1 [Cefuroxime, cefuroxime]							MIC50 [1, 5]: > 250 mg/L; MIC50 [1, 7]: > 250 mg/L; MIC [2, 8]: > 1000 µM; MIC [2, 9]: 7.8 µM (≈ 3.31 µg/mL); inhibitory effect on resistance of MRSA No.5 (in words) [2]: showed inhibitory effect on resistance of MRSA No.5
COc1ccc([C@@H]2CC(=O)c3c(O)cc(O)cc3O2)cc1O [Hesperetin, hesperetin]			> 250	> 250	> 250	> 250	
O=c1c(O)c(-c2ccc(O)c(O)c2)oc2cc(O)c(O)c(O)c12 [Quercetagetin, quercetagetin]							MIC50 ([3]; MRSA): > 250 mg/L; MIC ([3]; MRSA, MRSA (20 strains)): > 250 mg/L; MIC50 ([4]; MSSA): > 250 mg/L; MIC ([4]; MSSA, MSSA (7 strains)): > 250 mg/L
NC[C@H]1O[C@H](O[C@H]2[C@H](O)[C@@H](O[C@H]3O[C@H](CO)[C@@H](O)[C@H](N)[C@H]3O)[C@H](N)C[C@@H]2N)[C@H](O)[C@@H](O)[C@@H]1O [Kanamycin, kanamycin]	> 250	250					
O=c1c(O)c(-c2cc(O)c(O)c(O)c2)oc2cc(O)cc(O)c12 [Myricetin, myricetin]			> 250		> 250	> 250	
[H]/N=C(/N)N[C@H]1[C@H](O)[C@@H](O)[C@H](O[C@@H]2O[C@@H](C)[C@](O)(C=O)[C@H]2O[C@@H]2O[C@@H](CO)[C@H](O)[C@@H](O)[C@@H]2NC)[C@@H](N/C(N)=N\[H])[C@@H]1O [Streptomycin, streptomycin]	7.8	7.6					MIC [1, 10]: 7.8 to 15.6 mg/L; MIC [1, 11]: 2 to 15.6 mg/L; MIC [2, 16]: < 0.98 µM; inhibitory effect on resistance of MRSA No.5 (in words) [2]: appeared not to be showed
O=C1C[C@@H](c2ccc(O)cc2)Oc2cc(O)cc(O)c21 [Naringenin, naringenin]			> 250	> 250	> 250	> 250	
O=c1cc(-c2ccccc2)oc2cc(O)cc(O)c12 [Chrysin, chrysin]			> 250	> 250	> 250	> 250	
CC1(C)S[C@@H]2[C@H](NC(=O)Cc3ccccc3)C(=O)N2[C@H]1C(=O)O [Penicillin G, penicillin G]	31.3	15.6					MIC [1, 10]: 0.49 to 125 mg/L; MIC [1, 11]: 0.49 to 62.5 mg/L
COc1cc(O)c2c(=O)c(O)c(-c3ccc(O)c(O)c3)oc2c1 [Rhamnetin, rhamnetin]			> 250	> 250	> 250	> 250	
O=C(N[C@H](CO)[C@H](O)c1ccc([N+](=O)[O-])cc1)C(Cl)Cl [Chloramphenicol, chloramphenicol]	7.8	7.8					MIC [1, 10]: 2 to 62.5 mg/L; MIC [1, 11]: 3.9 to 31.3 mg/L
COc1ccc(-c2coc3cc(O)ccc3c2=O)cc1 [Formononetin, formononetin]			> 250	> 250	> 250	> 250	
Cc1onc(-c2ccccc2)c1C(=O)N[C@@H]1C(=O)N2[C@@H]1SC(C)(C)[C@@H]2C(=O)O [Oxacillin, oxacillin]	250	250					MIC ([2]; Concentration of flavone 0 mM): 1000 µM (≈ 401 µg/mL); MIC [2, 16]: 15.6 µM (≈ 6.26 µg/mL)
O=c1c(-c2ccc(O)cc2)coc2cc(O)ccc12 [Daidzein, daidzein]			> 250	> 250	> 250	> 250	
COc1ccc(-c2cc(=O)c3c(O)cc(O)cc3o2)cc1 [Acacetin, acacetin]			> 250	> 250	> 250	> 250	
O=c1cc(-c2ccccc2)oc2cc(O)c(O)c(O)c12 [Baicalein, baicalein]			> 250	> 250	> 250	> 250	
CN(C)C1C(=O)C(C(N)=O)=C(O)C2(O)C(=O)C3=C(O)c4c(O)cccc4C(C)(O)C3CC12 (stereo not drawn) [Tetracycline, tetracycline]	0.98	0.98					MIC ([1]; Antibiotics alone): 0.24 to 250 mg/L; MIC [1, 11]: 0.49 to 250 mg/L
O=c1c(-c2ccc(O)cc2)coc2cc(O)cc(O)c12 [Genistein, genistein]			> 250	> 250	> 250	> 250	

Source: patent US6294526A, “Use of flavone derivatives for induction of β-lactam-sensitivity of MRSA” (priority 1998, dated 2001)
